According to ChEMBL document CHEMBL3885881, “DrugMatrix”:

Species on record: Rattus norvegicus
Assay: DrugMatrix - Regimen: Daily Repeat
Format: toxicity, organism-based, Sprague-Dawley
Parameters: regimen Daily Repeat, gender Male, age 6-8 weeks
Conditions: in vivo, po, route oral GAVAGE, […]; for ABSOLUTE BASOPHIL / ABSOLUTE EOSINOPHIL / ABSOLUTE LYMPHOCYTE / ABSOLUTE MONOCYTE / ABSOLUTE SEGMENTED NEUTROPHIL / BASOPHIL / EOSINOPHIL / ERYTHROCYTE COUNT / HEMATOCRIT / HEMOGLOBIN / LEUKOCYTE COUNT / LYMPHOCYTE / MEAN CORPUSCULAR HEMOGLOBIN / MEAN CORPUSCULAR HEMOGLOBIN CONCENTRATION / MEAN CORPUSCULAR VOLUME / MONOCYTE / NEUTROPHIL / NUCLEATED RED BLOOD CELLS / PLATELET COUNT: tissue Blood; for ALANINE AMINOTRANSFERASE / ALBUMIN / ALKALINE PHOSPHATASE / ASPARTATE AMINOTRANSFERASE / BLOOD UREA NITROGEN / CARBON DIOXIDE / CHLORIDE / CHOLESTEROL / CREATINE PHOSPHOKINASE / CREATININE / GLUCOSE / LACTATE DEHYDROGENASE / LIPASE / PHOSPHORUS / POTASSIUM / SODIUM / TOTAL BILIRUBIN / TOTAL PROTEIN / URIC ACID: tissue Plasma
[1] = 10 mg/kg, 120 h, dose level Low, time 5 day
[2] = 1100 mg/kg, 72 h, dose level High, time 3 day
[3] = 1100 mg/kg, 120 h, dose level High, time 5 day

## COCCOC(=O)C1=C(C)NC(C)=C(C(=O)OC(C)C)C1c1cccc([N+](=O)[O-])c1 (centres undefined) [NIMODIPINE]
[1]
  ABSOLUTE BASOPHIL: 0 CELLS/uL
  ABSOLUTE EOSINOPHIL: 0 CELLS/uL
  ABSOLUTE LYMPHOCYTE: 13499.67 CELLS/uL
  ABSOLUTE MONOCYTE: 96.33 CELLS/uL
  ABSOLUTE SEGMENTED NEUTROPHIL: 1037.33 CELLS/uL
  BASOPHIL: 0%
  EOSINOPHIL: 0%
  ERYTHROCYTE COUNT: 5.7 x10E6/uL
  HEMATOCRIT: 36.23%
  HEMOGLOBIN: 13.9 G/DL
  LEUKOCYTE COUNT: 14.63 x10E3/uL
  LYMPHOCYTE: 92.67%
  MEAN CORPUSCULAR HEMOGLOBIN: 24.4 pg
  MEAN CORPUSCULAR HEMOGLOBIN CONCENTRATION: 38.37 G/DL
  MEAN CORPUSCULAR VOLUME: 63.63 fL
  MONOCYTE: 0.67%
  NEUTROPHIL: 6.67%
  NUCLEATED RED BLOOD CELLS: 0 /100WBC
  PLATELET COUNT: 940 x10E3/uL
  ALANINE AMINOTRANSFERASE: 59.33 u/L
  ALBUMIN: 4.3 G/DL
  ALKALINE PHOSPHATASE: 389.33 u/L
  ASPARTATE AMINOTRANSFERASE: 102.33 u/L
  BLOOD UREA NITROGEN: 15 mg/dL
  CARBON DIOXIDE: 31.67 mmol/L
  CHLORIDE: 100 MEQ/L
  CHOLESTEROL: 63 mg/dL
  CREATINE PHOSPHOKINASE: 716.33 u/L
  CREATININE: 0.16 mg/dL
  GLUCOSE: 145.33 mg/dL
  LACTATE DEHYDROGENASE: 194.33 u/L
  LIPASE: 9.33 u/L
  PHOSPHORUS: 10.4 mg/dL
  POTASSIUM: 5.95 MEQ/L
  SODIUM: 143.1 MEQ/L
  TOTAL BILIRUBIN: 0.23 mg/dL
  TOTAL PROTEIN: 6.2 G/DL
  URIC ACID: 0.83 mg/dL
[2]
  ABSOLUTE BASOPHIL: 0 CELLS/uL
  ABSOLUTE EOSINOPHIL: 0 CELLS/uL
  ABSOLUTE LYMPHOCYTE: 8640.33 CELLS/uL
  ABSOLUTE MONOCYTE: 0 CELLS/uL
  ABSOLUTE SEGMENTED NEUTROPHIL: 859.67 CELLS/uL
  BASOPHIL: 0%
  EOSINOPHIL: 0%
  ERYTHROCYTE COUNT: 6.21 x10E6/uL
  HEMATOCRIT: 37.2%
  HEMOGLOBIN: 14.77 G/DL
  LEUKOCYTE COUNT: 9.5 x10E3/uL
  LYMPHOCYTE: 91%
  MEAN CORPUSCULAR HEMOGLOBIN: 23.77 pg
  MEAN CORPUSCULAR HEMOGLOBIN CONCENTRATION: 39.7 G/DL
  MEAN CORPUSCULAR VOLUME: 59.87 fL
  MONOCYTE: 0%
  NEUTROPHIL: 9%
  NUCLEATED RED BLOOD CELLS: 0.33 /100WBC
  PLATELET COUNT: 1341.67 x10E3/uL
  ALANINE AMINOTRANSFERASE: 90 u/L
  ALBUMIN: 4.17 G/DL
  ALKALINE PHOSPHATASE: 427.67 u/L
  ASPARTATE AMINOTRANSFERASE: 82.67 u/L
  BLOOD UREA NITROGEN: 13 mg/dL
  CARBON DIOXIDE: 27.33 mmol/L
  CHLORIDE: 97.67 MEQ/L
  CHOLESTEROL: 77.67 mg/dL
  CREATINE PHOSPHOKINASE: 248.33 u/L
  CREATININE: 0.17 mg/dL
  GLUCOSE: 211.67 mg/dL
  LACTATE DEHYDROGENASE: 205.33 u/L
  LIPASE: 11.33 u/L
  PHOSPHORUS: 10.23 mg/dL
  POTASSIUM: 4.32 MEQ/L
  SODIUM: 139.8 MEQ/L
  TOTAL BILIRUBIN: 0.4 mg/dL
  TOTAL PROTEIN: 6.33 G/DL
  URIC ACID: 0.47 mg/dL
[3]
  ABSOLUTE BASOPHIL: 0 CELLS/uL
  ABSOLUTE EOSINOPHIL: 0 CELLS/uL
  ABSOLUTE LYMPHOCYTE: 5312.67 CELLS/uL
  ABSOLUTE MONOCYTE: 159.33 CELLS/uL
  ABSOLUTE SEGMENTED NEUTROPHIL: 1728 CELLS/uL
  BASOPHIL: 0%
  EOSINOPHIL: 0%
  ERYTHROCYTE COUNT: 7.19 x10E6/uL
  HEMATOCRIT: 42.83%
  HEMOGLOBIN: 16.87 G/DL
  LEUKOCYTE COUNT: 7.2 x10E3/uL
  LYMPHOCYTE: 75.67%
  MEAN CORPUSCULAR HEMOGLOBIN: 23.43 pg
  MEAN CORPUSCULAR HEMOGLOBIN CONCENTRATION: 39.33 G/DL
  MEAN CORPUSCULAR VOLUME: 59.63 fL
  MONOCYTE: 2%
  NEUTROPHIL: 22.33%
  NUCLEATED RED BLOOD CELLS: 0 /100WBC
  PLATELET COUNT: 1410 x10E3/uL
  ALANINE AMINOTRANSFERASE: 65.33 u/L
  ALBUMIN: 4 G/DL
  ALKALINE PHOSPHATASE: 160 u/L
  ASPARTATE AMINOTRANSFERASE: 89.33 u/L
  BLOOD UREA NITROGEN: 43.67 mg/dL
  CARBON DIOXIDE: 34.33 mmol/L
  CHLORIDE: 84 MEQ/L
  CHOLESTEROL: 75 mg/dL
  CREATINE PHOSPHOKINASE: 283.67 u/L
  CREATININE: 0.22 mg/dL
  GLUCOSE: 198.67 mg/dL
  LACTATE DEHYDROGENASE: 180 u/L
  LIPASE: 12.33 u/L
  PHOSPHORUS: 9.97 mg/dL
  POTASSIUM: 3.85 MEQ/L
  SODIUM: 133.83 MEQ/L
  TOTAL BILIRUBIN: 0.3 mg/dL
  TOTAL PROTEIN: 6.2 G/DL
  URIC ACID: 0.3 mg/dL
